# Results: patent US8524700B2, “Tetrahydroisoquinoline sulfonamide derivatives, the preparation thereof, and the use of the same in therapeutics” (Sanofi, priority 2004, dated 2013)
# pIC50, pKi: −log10 of the molar value. Counter-ions that a name gives are not always drawn.
# Test system: not given
# Assay: not given
# Conditions: not given
row,SMILES,melting point
1,"CCN(CC)CCCNS(=O)(=O)c1ccc2c(c1)CN(Cc1ccccc1)CC2 (as salt: oxalate) [compound 5, 2-benzyl-N-[3-(diethylamino)propyl]-1,2,3,4-tetrahydroisoquinoline-7-sulfonamide]",91 to 95 °C
2,"CCN(CC)CCCNS(=O)(=O)c1ccc2c(c1)CN(CC1CCCCC1)CC2 (as salt: oxalate) [compound 7, 2-(cyclohexylmethyl)-N-[3-(diethylamino)propyl]-1,2,3,4-tetrahydroisoquinoline-7-sulfonamide]",144 to 147 °C
3,"CCN(CC)CCCNS(=O)(=O)c1ccc2c(c1)CN(Cc1cccs1)CC2 (as salt: oxalate) [compound 11, N-[3-(diethylamino)propyl]-2-(2-thienylmethyl)-1,2,3,4-tetrahydroisoquinoline-7-sulfonamide]",109 to 115 °C
4,"CCN(CC)CCCNS(=O)(=O)c1ccc2c(c1)CN(Cc1ccsc1)CC2 (as salt: oxalate) [compound 12, N-[3-(diethylamino)propyl]-2-(3-thienylmethyl)-1,2,3,4-tetrahydroisoquinoline-7-sulfonamide]",89 to 95 °C
5,"CCN(CC)CCCNS(=O)(=O)c1ccc2c(c1)CN(C1CCCCC1)CC2 (as salt: oxalate) [compound 14, 2-cyclohexyl-N-[3-(diethylamino)propyl]-1,2,3,4-tetrahydroisoquinoline-7-sulfonamide]",55 to 60 °C
6,"O=S(=O)(NCCCN1CCCC1)c1ccc2c(c1)CN(CC1CCCCC1)CC2 (as salt: oxalate) [compound 21, 2-(cyclohexylmethyl)-N-(3-pyrrolidin-1-ylpropyl)-1,2,3,4-tetrahydroisoquinoline-7-sulfonamide]",130 to 141 °C
7,"CN1CCCC1CCNS(=O)(=O)c1ccc2c(c1)CN(CC1CC1)CC2 (racemic) (as salt: oxalate) [compound 22, (+/−)-2-(cyclopropylmethyl)-N-[2-(1-methylpyrrolidin-2-yl)ethyl]-1,2,3,4-tetrahydroisoquinoline-7-sulfonamide]",50 to 60 °C
8,"CN1CCCC1CCNS(=O)(=O)c1ccc2c(c1)CN(Cc1ccccc1)CC2 (racemic) (as salt: oxalate) [compound 23, (+/−)-2-benzyl-N-[2-(1-methylpyrrolidin-2-yl)ethyl]-1,2,3,4-tetrahydroisoquinoline-7-sulfonamide]",77 to 82 °C
9,"CC(C)c1ccc(CN2CCc3ccc(S(=O)(=O)NCCC4CCCN4C)cc3C2)cc1 (racemic) (as salt: oxalate) [compound 24, (+/−)-2-(4-isopropylbenzyl)-N-[2-(1-methylpyrrolidin-2-yl)ethyl]-1,2,3,4-tetrahydroisoquinoline-7-sulfonamide]",103 to 110 °C
10,"CN1CCCC1CCNS(=O)(=O)c1ccc2c(c1)CN(Cc1ccc3c(c1)OCO3)CC2 (racemic) (as salt: oxalate) [compound 25, (+/−)-2-(1,3-benzodioxol-5-ylmethyl)-N-[2-(1-methylpyrrolidin-2-yl)ethyl]-1,2,3,4-tetrahydroisoquinoline-7-sulfonamide]",106 to 109 °C
11,"CN1CCCC1CCNS(=O)(=O)c1ccc2c(c1)CN(Cc1ccc(Br)cc1)CC2 (racemic) (as salt: oxalate) [compound 30, (+/−)-2-(4-bromobenzyl)-N-[2-(1-methylpyrrolidin-2-yl)ethyl]-1,2,3,4-tetrahydroisoquinoline-7-sulfonamide]",86 to 110 °C
12,"COc1ccc(OC)c(CN2CCc3ccc(S(=O)(=O)NCCC4CCCN4C)cc3C2)c1 (racemic) (as salt: oxalate) [compound 31, (+/−)-2-(2,5-dimethoxybenzyl)-N-[2-(1-methylpyrrolidin-2-yl)ethyl]-1,2,3,4-tetrahydroisoquinoline-7-sulfonamide]",87 to 90 °C
13,"CCC(C)CN1CCc2ccc(S(=O)(=O)NCCC3CCCN3C)cc2C1 (racemic) (as salt: oxalate) [compound 32, (+/−)-2-(2-methylbutyl)-N-[2-(1-methylpyrrolidin-2-yl)ethyl]-1,2,3,4-tetrahydroisoquinoline-7-sulfonamide]",66 to 77 °C
14,"COc1cccc(CN2CCc3ccc(S(=O)(=O)NCCC4CCCN4C)cc3C2)c1 (racemic) (as salt: oxalate) [compound 33, (+/−)-2-(3-methoxybenzyl)-N-[2-(1-methylpyrrolidin-2-yl)ethyl]-1,2,3,4-tetrahydroisoquinoline-7-sulfonamide]",80 to 107 °C
15,"Cc1cc(C)cc(CN2CCc3ccc(S(=O)(=O)NCCC4CCCN4C)cc3C2)c1 (racemic) (as salt: oxalate) [compound 34, (+/−)-2-(3,5-dimethyl-benzyl)-N-[2-(1-methylpyrrolidin-2-yl)ethyl]-1,2,3,4-tetrahydroisoquinoline-7-sulfonamide]",121 to 125 °C

# Further lines, results first:
row,melting point,SMILES
1,230 to 234 °C,CN(C)CCCNS(=O)(=O)c1ccc2c(c1)CNCC2 (as salt: hydrochloride)
2,> 250 °C,"O=S(=O)(NCCCN1CC=CCC1)c1ccc2c(c1)CNCC2 (as salt: hydrochloride) [compound 9, N-[3-(3,6-dihydropyridin-1(2H)-yl)propyl]-1,2,3,4-tetrahydroisoquinoline-7-sulfonamide]"
3,228 to 231 °C,"O=S(=O)(NCCCN1CC=CC1)c1ccc2c(c1)CNCC2 (as salt: hydrochloride) [compound 13, N-[3-(2,5-dihydro-1H-pyrrol-1-yl)propyl]-1,2,3,4-tetrahydroisoquinoline-7-sulfonamide]"
4,244 to 249 °C,"O=S(=O)(NCCCN1CCN(Cc2ccccc2)CC1)c1ccc2c(c1)CNCC2 (as salt: hydrochloride) [compound 17, N-[3-(4-benzylpiperazin-1-yl)propyl]-1,2,3,4-tetrahydroisoquinoline-7-sulfonamide]"
5,237 to 241 °C,"O=S(=O)(NCCCN1CCCC1)c1ccc2c(c1)CNCC2 (as salt: hydrochloride) [compound 18, N-(3-pyrrolidin-1-ylpropyl)-1,2,3,4-tetrahydroisoquinoline-7-sulfonamide]"
6,238 to 245 °C,"O=S(=O)(NCCCN1CCOCC1)c1ccc2c(c1)CNCC2 (as salt: hydrochloride) [compound 19, N-(3-morpholin-4-ylpropyl)-1,2,3,4-tetrahydroisoquinoline-7-sulfonamide]"
7,98 to 103 °C,"CCN(CC)CCCNS(=O)(=O)c1ccc2c(c1)CN(CC1CC1)CC2 (as salt: oxalate) [compound 6, 2-(cyclopropylmethyl)-N-[3-(diethylamino)propyl]-1,2,3,4-tetrahydroisoquinoline-7-sulfonamide]"
8,54 to 59 °C,"CCN(CC)CCCNS(=O)(=O)c1ccc2c(c1)CN(C(C)C)CC2 (as salt: oxalate) [compound 10, N-[3-(diethylamino)propyl]-2-isopropyl-1,2,3,4-tetrahydroisoquinoline-7-sulfonamide]"
9,99 to 104 °C,"CN1CCc2ccc(S(=O)(=O)NCCCN3CC=CC3)cc2C1 (as salt: oxalate) [compound 16, N-[3-(2,5-dihydro-1H-pyrrol-1-yl)propyl]-2-methyl-1,2,3,4-tetrahydroisoquinoline-7-sulfonamide]"
10,65 to 70 °C,CC1CCCCN1CCCNS(=O)(=O)c1ccc2c(c1)CNCC2 (racemic) (as salt: hydrochloride)

# Molecular target: native histamine H3 receptor (Rattus norvegicus, UniProt Q9QYN8)
# Assay: in vitro affinity assay on native histamine H3 receptor, [3H]-N-α-methylhistamine binding, adult rat brain membrane preparation
# Conditions: rat brain membranes, read-out: Ki with respect to H3 receptors
# From the text: More particularly, the compounds of the invention are histamine H3-receptor antagonists. H3 receptors are known to those skilled in the art and their advantage in therapeutics has been described in the literature (“Histamine H3 receptor antagonists” Exp. Opinion Ther. Patents (2000) 10 (7):1045-1055). Thus, the compounds of the invention of formula I were subjected to an in vitro affinity assay on the native histamine H3 receptor in an adult rat brain membrane preparation, by specific binding of [^3H]-N-α-methylhistamine to this receptor, according to the methods described by A. Korte et al., in Biochem. Biophys. Res. Commun. 168, 979-986 (1990) and by R. E. West Jr. et al., in Mol. Pharmacol. 38, 610-613 (1990).
# Chain of native histamine H3 receptor (Q9QYN8 1-397 isoform Q9QYN8-3): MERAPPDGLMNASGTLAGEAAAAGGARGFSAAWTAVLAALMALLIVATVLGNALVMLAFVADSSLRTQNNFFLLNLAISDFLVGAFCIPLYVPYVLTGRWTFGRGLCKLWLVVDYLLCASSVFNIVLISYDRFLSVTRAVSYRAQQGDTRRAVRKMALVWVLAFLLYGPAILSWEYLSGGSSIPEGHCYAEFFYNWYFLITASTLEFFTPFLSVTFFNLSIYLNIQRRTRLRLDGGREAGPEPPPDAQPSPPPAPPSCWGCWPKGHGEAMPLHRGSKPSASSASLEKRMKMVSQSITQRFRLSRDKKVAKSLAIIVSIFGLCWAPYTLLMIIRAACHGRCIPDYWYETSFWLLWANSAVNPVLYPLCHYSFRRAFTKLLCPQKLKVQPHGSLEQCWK
row,pKi,SMILES
1,9.52,"CN1CCCC1CCNS(=O)(=O)c1ccc2c(c1)CN(CC1CCCCC1)CC2 (racemic) [compound 15, (+/−)-2-(cyclohexylmethyl)-N-[2-(1-methylpyrrolidin-2-yl)ethyl]-1,2,3,4-tetrahydroisoquinoline-7-sulfonamide]"

# Molecular target: T1, human histamine H3 receptor transfected into CHO cells (Homo sapiens, UniProt Q9Y5N1)
# T1 construct: expressed in transfected cells; host or cells: CHO cells
# Assay: cAMP formation assay, inhibition of R-α-methylhistamine agonism, CHO cells (EIA kit)
# Type: cell-based
# Conditions: human H3 in CHO cells, EIA kit (Amersham)
# Protocol: The compounds of the invention of formula I were also subjected to a cAMP formation assay, on the human histamine H3 receptor transfected into CHO cells, by inhibition of the agonism caused by the specific binding of R-α-methylhistamine to this receptor, according to the methods described by T. W. Lovenberg et al., in J. Pharmacol. Exp. Ther. 293, 771-778 (2000).
# By way of example, compound 15, included in Table 1, has an IC50<10 nM, using an EIA kit (Amersham) to measure cAMP formation, on the human histamine H3 receptor transfected into CHO cells, by inhibition of the agonism caused by the specific binding of R-α-methylhistamine to this receptor.
# T1 sequence (Q9Y5N1 whole entry): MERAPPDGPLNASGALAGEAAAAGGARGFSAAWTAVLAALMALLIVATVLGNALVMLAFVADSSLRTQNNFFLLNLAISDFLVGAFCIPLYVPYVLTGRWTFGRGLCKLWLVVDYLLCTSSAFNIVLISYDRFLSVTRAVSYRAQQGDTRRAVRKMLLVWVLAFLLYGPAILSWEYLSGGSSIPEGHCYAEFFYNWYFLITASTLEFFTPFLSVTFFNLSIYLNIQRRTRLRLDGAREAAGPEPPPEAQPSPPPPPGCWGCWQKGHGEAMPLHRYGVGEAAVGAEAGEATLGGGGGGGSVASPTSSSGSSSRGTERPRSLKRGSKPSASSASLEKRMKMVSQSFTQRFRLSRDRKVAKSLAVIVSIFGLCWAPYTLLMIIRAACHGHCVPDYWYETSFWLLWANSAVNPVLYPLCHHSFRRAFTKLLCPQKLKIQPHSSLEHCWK
row,pIC50,SMILES
1,> 8.00,"CN1CCCC1CCNS(=O)(=O)c1ccc2c(c1)CN(CC1CCCCC1)CC2 (racemic) [compound 15, (+/−)-2-(cyclohexylmethyl)-N-[2-(1-methylpyrrolidin-2-yl)ethyl]-1,2,3,4-tetrahydroisoquinoline-7-sulfonamide]"

# Test system: food intake
# Assay: food intake in rats fasting for 24 h
# Type: in vivo, Wistar rats
# Conditions: 10 mg/kg i.p., during the first hour after administration, rats fasted 24 h
# Protocol: Furthermore, the compounds of the invention of formula I were subjected to in vivo tests showing their ability to reduce food intake in rats fasting for 24 h.
# The experiments were carried out on Wistar rats. The rats were placed individually in transparent plastic cages 48×26, 5×21.5 cm. These cages were placed in a room insulated against any noise, at a temperature of 20 to 22° C., with a light cycle from 7 o'clock in the morning to 7 o'clock in the evening, the rats having free access to water and to the food.
# Before the experiment was carried out, the rats were made to fast for 24 h, with access, however, to water ad libitum. On the day of the experiment, the carrier or the compound according to the present invention was administered i.p. or p.o., 15 or 30 minutes before a known amount of food (30 g) was made available.
# Each hour, for 6 hours, the amount of food ingested by the rat was measured.
row,SMILES,decrease of food intake
1,"CC(C)c1ccc(CN2CCc3ccc(S(=O)(=O)NCCC4CCCN4C)cc3C2)cc1 (racemic) [compound 24, (+/−)-2-(4-isopropylbenzyl)-N-[2-(1-methylpyrrolidin-2-yl)ethyl]-1,2,3,4-tetrahydroisoquinoline-7-sulfonamide]",54%
